Test results taken from EP1357114A1, “Substituted pyrimidin-2,4(1H,3H)-diones as inhibitors of Matrix Metalloproteinases (MMP)” (IBFB GmbH Privates Institut für biomedizinische Forschung …, priority 2002, dated 2003).

Legend:
MMP-9 = target: T1, MMP-9 (Homo sapiens, UniProt P14780); assay: Quantitative fluorescence assay for matrix metalloproteinases (cleavage of Mca-Pro-Leu-Gly-Leu-Dpa-Ala-Arg-NH2); format: biochemical
T1 construct: Das latente Enzym wird durch 30 - 60 min; Inkubation bei 37°C mit 1/100 Vol. Trypsin (10 mg/ml) aktiviert; from tissue; host or cells: human buffy coat (blood leukocytes)
T1 sequence (P14780 107-707 limits assumed): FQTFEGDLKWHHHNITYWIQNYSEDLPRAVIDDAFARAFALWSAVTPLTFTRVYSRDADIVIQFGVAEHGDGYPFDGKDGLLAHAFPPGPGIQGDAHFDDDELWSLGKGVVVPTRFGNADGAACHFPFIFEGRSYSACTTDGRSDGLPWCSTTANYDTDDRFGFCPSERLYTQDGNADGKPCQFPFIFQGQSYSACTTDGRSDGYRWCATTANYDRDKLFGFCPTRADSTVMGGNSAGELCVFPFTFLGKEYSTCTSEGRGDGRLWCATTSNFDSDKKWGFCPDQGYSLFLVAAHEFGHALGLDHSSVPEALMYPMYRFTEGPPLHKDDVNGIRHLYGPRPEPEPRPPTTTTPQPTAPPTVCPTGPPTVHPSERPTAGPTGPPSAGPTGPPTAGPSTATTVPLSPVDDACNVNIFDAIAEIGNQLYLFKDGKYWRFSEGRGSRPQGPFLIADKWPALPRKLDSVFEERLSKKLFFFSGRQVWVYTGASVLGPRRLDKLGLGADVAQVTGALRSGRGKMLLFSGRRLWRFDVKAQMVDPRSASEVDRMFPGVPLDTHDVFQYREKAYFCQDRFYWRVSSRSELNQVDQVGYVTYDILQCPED
Method: Native MMP-9 wurde reproduzierbar und in guter Ausbeute und Reinheit aus humanem Buffy Coat gewonnen. Hierzu wird Buffy Coat mit 10% (v/v) Triton X-100 auf eine Endkonzentration von 0,4% gebracht, 30 min. auf Eis geschüttelt und dann 1 Vol. 2-fach Bindungspuffer (40 mM Tris-HCI pH 7,5, 10 mM CaCl2, 1 M NaCI, 0,2% (v/v) Triton X-100) hinzugefügt und weitere 30 min. auf Eis geschüttelt. Die Lösung wird 15 min. bei 16 000 Upm an einem SS-34 Rotor bei 4°C abzentrifugiert und über Glaswolle filtriert. Das Filtrat wird mit Gelatine-Agarose, welche mit Bindungspuffer äquilibriert wurde, gebatcht und 1 Std. auf Eis geschüttelt. Die beladene Gelatine-Agarose wird in eine Säule überführt und mit mindestens 10 Vol. Bindungspuffer proteinfrei gespült. Die Elution der gebundenen MMP-9 erfolgt mit 2 Gelvolumen Bindungspuffer plus 5% (v/v) DMSO. Das Eluat kann zum Puffer-Austausch und gleichzeitiger Abtrennung geringer Verunreinigungen an MMP-2 über eine Gelfiltration an Sephadex G-75 aufgetrennt werden. Hierzu wird der Puffer I (20 mM Tris-HCI pH 7,5, 5 mM CaCl2, 100 mM NaCI, 0,1% (v/v) Triton X-100) verwendet. Das so gewonnene Eluat enthällt MMP-9 in den drei bekannten Zustandsformen: Monomer, Homodimer, Heterodimer. Die Reinheit des Enzyms beträgt ca. 90%, wobei die restlichen Fremdproteine Fibronektin und äußerst geringe Mengen an TIMP's sind. Das latente Enzym wird durch 30 - 60 min. Inkubation bei 37°C mit 1/100 Vol. Trypsin (10 mg/ml) aktiviert. Trypsin wird durch Zugabe von 1 mM PMSF oder mit einem spezifischen Inhibitor (TKI) gehemmt.
(§1) Durch enzymatische Spaltung des synthetischen Substrates Mca-Pro-Leu-Gly-Leu-Dpa-Ala-Arg-NH2 durch die jeweilige Kollagenase, wird die fluoreszente Gruppe Mca ((7-Methoxycoumarin-4-yl)acetyl) vom internen Quencher Dpa ((N-3-(2,4-dinitrophenyl)-L-2,3-diaminopropienyl) getrennt. Dabei erfolgt eine starke Zunahme der Fluoreszenz im Messansatz, die am Fluorimeter quantifiziert werden kann (λex 328 nm, λem 393 nm) und innerhalb der ersten Minuten linear verläuft. Eine gewisse Spezifität des Tests für Matrix-Metalloproteinasen ergibt sich einerseits aus der Aminosäuresequenz -Pro-Leu-Gly-Leu- im Substrat und andererseits durch die gewählten Inkubationsbedingungen. Matrix-Metalloproteinasen spalten das Substrat an der Bindung Gly-Leu. Gemessen wird die proteolytische Restaktivität vorinkubierter Ansätze von Enzym und Inhibitor, wobei die Substrat- und Enzymkonzentration konstant gehalten und die Inhibitorkonzentration variiert wurde. Es wurden für jeden getesteten Inhibitor drei Messreihen mit unterschiedlicher Substratkonzentration aufgenommen. Aus der zeitabhängigen Fluoreszenzzunahme wird die Enzymaktivität in Fluoreszenzeinheiten pro min berechnet. Die Bestimmung der Ki-Werte erfolgte graphisch nach der Methode von DIXON (1953) durch Auftragung der reziproken Reaktionsgeschwindigkeit 1/v (y-Achse) gegen Inhibitorkonzentration (x-Achse).
(§2) 1984 µl Messpuffer (100mM Tris-HCI pH 7,5, 100 mM NaCI, 10 mM CaCl2, 0,05% Brij 35 bzw. 50 mM MES-NaOH, pH 6.0, 10 mM CaCl2, 100 mM NaCI, 0.05% Brij 35 im Fall der KaDo MMP-3) 2 µl Inhibitor, gelöst in DMSO, bzw. DMSO allein (nichtinhibierender Ansatz) 4 µl Enzym • 5 min. Vorinkubation des Enzym-Inhibitor-Gemischs bei Raumtemperatur unter Rühren • Start der Reaktion mit 10 µl Substrat gelöst in DMSO • Aufzeichnung der zeitabhängigen Fluoreszenzzunahme über 2 - 10 min.

MMP-2 = target: T2, MMP-2 (Homo sapiens, UniProt P08253); assay: as above; format: biochemical
T2 construct: endogenous in cells; host or cells: cultured human dermal fibroblasts (secreted into conditioned medium)
T2 sequence (P08253 110-660): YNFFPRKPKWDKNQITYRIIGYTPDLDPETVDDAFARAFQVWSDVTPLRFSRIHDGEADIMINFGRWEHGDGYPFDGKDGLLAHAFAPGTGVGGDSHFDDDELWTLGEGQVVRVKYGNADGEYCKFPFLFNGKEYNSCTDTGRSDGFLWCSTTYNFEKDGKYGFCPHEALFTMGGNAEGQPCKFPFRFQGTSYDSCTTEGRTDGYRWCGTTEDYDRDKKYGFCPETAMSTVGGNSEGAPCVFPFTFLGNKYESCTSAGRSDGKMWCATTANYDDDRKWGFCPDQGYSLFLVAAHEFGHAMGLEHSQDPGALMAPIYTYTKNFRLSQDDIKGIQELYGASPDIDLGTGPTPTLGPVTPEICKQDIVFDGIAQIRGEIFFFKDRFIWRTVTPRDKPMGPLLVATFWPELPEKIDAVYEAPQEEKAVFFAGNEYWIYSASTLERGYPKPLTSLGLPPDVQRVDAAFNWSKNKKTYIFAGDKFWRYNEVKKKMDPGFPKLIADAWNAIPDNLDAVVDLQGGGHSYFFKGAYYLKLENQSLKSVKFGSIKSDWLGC
Method: MMP-2 (Gelatinase) wird von kultivierten dermalen Fibroblasten in beträchtlichen Mengen in das Kulturmedium abgegeben und ist daher leicht zugänglich. Die sezernierte und inaktive Proform des Enzyms wird durch Behandlung mit organischen Quecksilberverbindungen in die enzymatisch aktive Form überführt.
Hierzu werden humane dermale Fibroblasten nach etablierten Standardmethoden gewonnen und kultiviert. Aus dem konditionierten Zellmedium wird humane MMP-2 durch folgende Methode gewonnen: 500 ml Zellmedium werden 30 min. bei 10 000 g zentrifugiert und der Überstand mit einem Vol. 2-fach Bindungspuffer (40 mM Tris-HCI pH 7,5 , 10 mM CaCl2, 1 M NaCI, 0,2% (v/v) Triton X-100) versetzt. Dazu gibt man 6 ml Gelatine-Agarose, welche mit Bindungspuffer äquilibriert wurde, und schüttelt für 1 Std. auf Eis. Die beladene Gelatine-Agarose wird in eine Säule überführt und mit mindestens 10 Vol. Bindungspuffer proteinfrei gespült. Die Elution der gebundenen MMP-2 erfolgt mit 2 Gelvolumen Bindungspuffer plus 5% (v/v) DMSO. Das Eluat enthält die humane MMP-2 als inaktives Zymogen in stark angereicherter Form. Fremdproteine sind TIMP-2 und Fibronektin; das letztere kann durch eine Gelfiltration an Sephacryl S-200 abgetrennt werden. Laufpuffer ist 100 mM Tris-HCI pH 7,5, 10 mM CaCl2, 100 mM NaCI, 0,05% (v/v) Brij 35. Die inaktive humane MMP-2 wird durch zweistündige Inkubation bei 37 °C in Gegenwart von 1 mM p-Aminophenylmercuric Acetate (APMA) aktiviert. Zur Beseitigung von APMA nach Aktivierung wird die Probe an Sephadex G-25 in Laufpuffer (s.o.) filtriert.
as §1, §2

Compound	MMP-9 Hemmung (MMP-9; bei 10 µM)	MMP-2 Hemmung (MMP-2; bei 10 µM)	also measured
O=c1[nH]c2sc3c(c2c(=O)n1CC(S)CS)CCCC3 (racemic) [Beispiel 10, (R,S)-3-(2,3-Dimercaptopropyl)-5,6,7,8-tetrahydro[1]benzothieno[2,3-d]pyrimidin-2,4(1H,3H)-dion]	68% Hemmung bei 10 µM	52% Hemmung bei 10 µM	–
O=c1[nH]c2cc(Cl)ccc2c(=O)n1CC(S)CS (racemic) [Beispiel 3, (R,S)-7-Chlor-3-(2,3-dimercaptopropyl)chinazolin-2,4-(1H,3H)dion]	83% Hemmung bei 10 µM	90% Hemmung bei 10 µM	–
O=c1[nH]c2ccccc2c(=O)n1CC(S)CS (racemic) [Beispiel 1, (R,S)-3-(2,3-Dimercaptopropyl)chinazolin-2,4-(1H,3H)dion]	70% Hemmung bei 10 µM	70% Hemmung bei 10 µM	–
O=c1[nH]c2ccsc2c(=O)n1CC(S)CS (racemic) [Beispiel 9, (R,S)-3-(2,3-Dimercaptopropyl)thieno[3,2-d]pyrimidin-2,4(1H,3H)-dion]	–	–	MMP-9 Hemmung (MMP-9; bei 2,5 µM): 50% Hemmung bei 2,5 µM; MMP-2 Hemmung (MMP-2; bei 3 µM): 50% Hemmung bei 3 µM
O=c1[nH]c2sc(-c3ccccc3)cc2c(=O)n1CC(S)CS (racemic) [Beispiel 11, (R,S)-3-(2,3-Dimercaptopropyl)-6-phenylthieno[2,3-d]pyrimidin-2,4(1H,3H)-dion]	–	–	MMP-9 Hemmung (MMP-9; bei 1 µM): 15% Hemmung bei 1 µM; MMP-2 Hemmung (MMP-2; bei 1 µM): 15% Hemmung bei 1 µM
O=C(NCc1ccccc1)c1ccc2c(=O)n(CC(S)CS)c(=O)[nH]c2c1 (racemic) [Beispiel 8, (R,S)-N-Benzyl-3-(2,3-dimercaptopropyl)-2,4-dioxo-1,2,3,4-tetrahydrochinazolin-7-carboxamide]	–	–	MMP-9 Hemmung (MMP-9; bei 5 µM): 30% Hemmung bei 5 µM; MMP-2 Hemmung (MMP-2; bei 5 µM): 50% Hemmung bei 5µM
O=c1[nH]c2ccc(Cl)cc2c(=O)n1CC(S)CS (racemic) [Beispiel 4, (R,S)-6-Chlor-3-(2,3-dimercaptopropyl)chinazolin-2,4-(1H,3H)dion]	50% Hemmung bei 10 µM	50% Hemmung bei 10 µM	–
COc1cc2[nH]c(=O)n(CC(S)CS)c(=O)c2cc1OC (racemic) [Beispiel 7, (R,S)-3-(2,3-Dimercaptopropyl)-6,7-dimethoxy-chinazolin-2,4-(1H,3H)dion]	–	–	MMP-9 Hemmung (MMP-9; bei 1 µM): 20% Hemmung bei 1 µM; MMP-2 Hemmung (MMP-2; bei 1 µM): 20% Hemmung bei 1 µM
Cc1cccc2[nH]c(=O)n(CC(S)CS)c(=O)c12 (racemic) [Beispiel 5, (R,S)-3-(2,3-Dimercaptopropyl)-5-methyl-chinazolin-2,4-(1H,3H)dion]	70% Hemmung bei 10 µM	50% Hemmung bei 10 µM	–
